Test results from patent US9499550B2 (BRISTOL-MYERS SQUIBB COMPANY, priority 2012, dated 2016).

Experiments:
[1] = test system: HCV genotype 1a (H77 strain) replicon in HUH-7 cells; test: HCV replicon luciferase reporter assay, genotype 1a; format: cell-based; conditions: Hepatitis C virus, Huh-7, 72 h, HCV genotype 1a replicon luciferase, 3 days incubation, read-out: LE_1a (EC50, range)
How it was run: (§1)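 Replicon inhibition for both genotypes was measured as Renilla luciferase signal (EnduRen, 7.5 μM final, 2 h) after 3-day, 37° C exposure of replicon-bearing HUH-7 cells in 4% FCS DMEM, 0.5% DMSO. The 1b construct carries S1179I; the 1a H77 construct carries P1496L and S2204I. Twenty-point, 3-fold dilutions were fitted four-parametrically for EC50, and CC50 was taken from multiplexed Cell Titer-Blue.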

[2] = test system: HCV genotype 1b (Con1) replicon in HUH-7 cells; test: HCV replicon luciferase reporter assay, genotype 1b; format: cell-based; conditions: Hepatitis C virus, Huh-7, 72 h, HCV genotype 1b replicon luciferase, 3 days incubation, read-out: LE_1b (EC50, range)
How it was run: as §1

SMILES | EC50 [1] | EC50 [2]
CC[C@@H]1C[C@H](C)CC/C=C\[C@@H]2C[C@@]2(C(=O)NS(=O)(=O)C2CC2)NC(=O)[C@@H]2C[C@@H](Oc3nc(-c4ccc(OC(C)C)cn4)cc4cc(OC)ccc34)CN2C(=O)[C@H]1NC(=O)OC(C)(C)C(F)(F)F [Compound 5485, 1,1,1-trifluoro-2-methylpropan-2-yl((2R,6S,7R,9R,13aS,14aR,16aS,Z)-14a-((cyclopropylsulfonyl)carbamoyl)-7-ethyl-2-((3-(5-isopropoxypyridin-2-yl)-6-methoxyisoquinolin-1-yl)oxy)-9-methyl-5,16-dioxo-1,2,3,5,6,7,8,9,10,11,13a,14,14a,15,16,16a-hexadecahydrocyclopropa[e]pyrrolo[1,2-a][1,4]diazacyclopentadecin-6-yl)carbamate] | 1.01 to 5 nM | 1.01 to 5 nM
CC[C@@H]1C[C@H](C)CC/C=C\[C@@H]2C[C@@]2(C(=O)NS(=O)(=O)C2(C)CC2)NC(=O)[C@@H]2C[C@@H](Oc3nc(-c4ccc(OC(C)C)cn4)cc4cc(OC)ccc34)CN2C(=O)[C@H]1NC(=O)OC(C)(C)C(C)(F)F [Compound 5487, 3,3-difluoro-2-methylbutan-2-yl((2R,6S,7R,9R,13aS,14aR,16aS,Z)-7-ethyl-2-((3-(5-isopropoxypyridin-2-yl)-6-methoxyisoquinolin-1-yl)oxy)-9-methyl-14a-(((1-methylcyclopropyl)sulfonyl)carbamoyl)-5,16-dioxo-1,2,3,5,6,7,8,9,10,11,13a,14,14a,15,16,16a-hexadecahydrocyclopropa[e]pyrrolo[1,2-a][1,4]diazacyclopentadecin-6-yl)carbamate] | 1.01 to 5 nM | 1.01 to 5 nM
CC[C@@H]1C[C@H](C)CC/C=C\[C@@H]2C[C@@]2(C(=O)NS(=O)(=O)C2(C)CC2)NC(=O)[C@@H]2C[C@@H](Oc3nc(-c4ccc(OC(C)C)cn4)cc4cc(OC)ccc34)CN2C(=O)[C@H]1NC(=O)OC(C)(C)C(F)(F)F [Compound 5489, 1,1,1-trifluoro-2-methylpropan-2-yl((2R,6S,7R,9R,13aS,14aR,16aS,Z)-7-ethyl-2-((3-(5-isopropoxypyridin-2-yl)-6-methoxyisoquinolin-1-yl)oxy)-9-methyl-14a-(((1-methylcyclopropyl)sulfonyl)carbamoyl)-5,16-dioxo-1,2,3,5,6,7,8,9,10,11,13a,14,14a,15,16,16a-hexadecahydrocyclopropa[e]pyrrolo[1,2-a][1,4]diazacyclopentadecin-6-yl)carbamate] | 1.01 to 5 nM | 1.01 to 5 nM
[2H]C([2H])([2H])Oc1cc2ccnc(O[C@@H]3C[C@H]4C(=O)N[C@]5(C(=O)NS(=O)(=O)C6(C)CC6)C[C@H]5/C=C\CC[C@@H](C)C[C@@H](CC)[C@H](NC(=O)OC(C)(C)C(F)(F)F)C(=O)N4C3)c2cc1F [Compound 5503] | 1.01 to 5 nM | 0.51 to 1 nM
[2H]C([2H])([2H])Oc1cc2ccnc(O[C@@H]3C[C@H]4C(=O)N[C@]5(C(=O)NS(=O)(=O)C6(C)CC6)C[C@H]5/C=C\CC[C@@H](C)C[C@@H](CC)[C@H](NC(=O)OC(C([2H])([2H])[2H])(C([2H])([2H])[2H])C(F)(F)F)C(=O)N4C3)c2cc1F [Compound 5505] | 5.01 to 35 nM | 1.01 to 5 nM
CC[C@@H]1C[C@H](C)CC/C=C\[C@@H]2C[C@@]2(C(=O)NS(=O)(=O)C2(C)CC2)NC(=O)[C@@H]2C[C@@H](Oc3nccc4cc(OC)ccc34)CN2C(=O)[C@H]1NC(=O)OC(C)(C)C(F)F [Compound 5523, 1,1-difluoro-2-methylpropan-2-yl((2R,6S,7R,9R,13aS,14aR,16aS,Z)-7-ethyl-2-((6-methoxyisoquinolin-1-yl)oxy)-9-methyl-14a-(((1-methylcyclopropyl)sulfonyl)carbamoyl)-5,16-dioxo-1,2,3,5,6,7,8,9,10,11,13a,14,14a,15,16,16a-hexadecahydrocyclopropa[e]pyrrolo[1,2-a][1,4]diazacyclopentadecin-6-yl)carbamate] | 1.01 to 5 nM | 0.51 to 1 nM
CCOc1cc2ccnc(O[C@@H]3C[C@H]4C(=O)N[C@]5(C(=O)NS(=O)(=O)C6(C)CC6)C[C@H]5/C=C\CC[C@@H](C)C[C@@H](CC)[C@H](NC(=O)OC(C)(C)C(F)F)C(=O)N4C3)c2cc1F [Compound 5525, 1,1-difluoro-2-methylpropan-2-yl((2R,6S,7R,9R,13aS,14aR,16aS,Z)-2-((6-ethoxy-7-fluoroisoquinolin-1-yl)oxy)-7-ethyl-9-methyl-14a-(((1-methylcyclopropyl)sulfonyl)carbamoyl)-5,16-dioxo-1,2,3,5,6,7,8,9,10,11,13a,14,14a,15,16,16a-hexadecahydrocyclopropa[e]pyrrolo[1,2-a][1,4]diazacyclopentadecin-6-yl)carbamate] | 1.01 to 5 nM | 0.51 to 1 nM
CC[C@@H]1C[C@H](C)CC/C=C\[C@@H]2C[C@@]2(C(=O)NS(=O)(=O)C2(C)CC2)NC(=O)[C@@H]2C[C@@H](Oc3nccc4cc(OC)c(F)cc34)CN2C(=O)[C@H]1NC(=O)OC(C)(C)C(F)F [Compound 5527, 1,1-difluoro-2-methylpropan-2-yl((2R,6S,7R,9R,13aS,14aR,16aS,Z)-7-ethyl-2-((7-fluoro-6-methoxyisoquinolin-1-yl)oxy)-9-methyl-14a-(((1-methylcyclopropyl)sulfonyl)carbamoyl)-5,16-dioxo-1,2,3,5,6,7,8,9,10,11,13a,14,14a,15,16,16a-hexadecahydrocyclopropa[e]pyrrolo[1,2-a][1,4]diazacyclopentadecin-6-yl)carbamate] | 1.01 to 5 nM | 0.51 to 1 nM
CC[C@@H]1C[C@H](C)CC/C=C\[C@@H]2C[C@@]2(C(=O)NS(=O)(=O)C2(C)CC2)NC(=O)[C@@H]2C[C@@H](Oc3ncc(OC)c4ccc(F)cc34)CN2C(=O)[C@H]1NC(=O)OC(C)(C)C(F)F [Compound 5529, 1,1-difluoro-2-methylpropan-2-yl((2R,6S,7R,9R,13aS,14aR,16aS,Z)-7-ethyl-2-((7-fluoro-4-methoxyisoquinolin-1-yl)oxy)-9-methyl-14a-(((1-methylcyclopropyl)sulfonyl)carbamoyl)-5,16-dioxo-1,2,3,5,6,7,8,9,10,11,13a,14,14a,15,16,16a-hexadecahydrocyclopropa[e]pyrrolo[1,2-a][1,4]diazacyclopentadecin-6-yl)carbamate] | 1.01 to 5 nM | 0.1 to 0.5 nM
CCOc1cnc(O[C@@H]2C[C@H]3C(=O)N[C@]4(C(=O)NS(=O)(=O)C5(C)CC5)C[C@H]4/C=C\CC[C@@H](C)C[C@@H](CC)[C@H](NC(=O)OC(C)(C)C(F)F)C(=O)N3C2)c2ccccc12 [Compound 5531, 1,1-difluoro-2-methylpropan-2-yl((2R,6S,7R,9R,13aS,14aR,16aS,Z)-2-((4-ethoxyisoquinolin-1-yl)oxy)-7-ethyl-9-methyl-14a-(((1-methylcyclopropyl)sulfonyl)carbamoyl)-5,16-dioxo-1,2,3,5,6,7,8,9,10,11,13a,14,14a,15,16,16a-hexadecahydrocyclopropa[e]pyrrolo[1,2-a][1,4]diazacyclopentadecin-6-yl)carbamate] | 1.01 to 5 nM | 0.51 to 1 nM
